From patent US10478425B2, “5-phenylazaindole derivative having AMPK-activating activity” (Shionogi & Co., Ltd., priority 2016, dated 2019)

Molecular target: T1, Human AMPK α2β2γ1 (Homo sapiens, UniProt O43741+P54646)
T1 construct: The full length cDNAs of human AMPK β2 (NM_005399.3) and human AMPK α2 (NM_006252.3); The full length cDNAs of human AMPK β2 (NM_005399.3); the full length cDNA of human AMPK γ1 (NM_002733.3) had been inserted into pET28b(+); 6×His (N); made in house; host or cells: Escherichia coli BL21 CodonPlus (DE3)-RIL
T1 sequence (P54646 whole entry): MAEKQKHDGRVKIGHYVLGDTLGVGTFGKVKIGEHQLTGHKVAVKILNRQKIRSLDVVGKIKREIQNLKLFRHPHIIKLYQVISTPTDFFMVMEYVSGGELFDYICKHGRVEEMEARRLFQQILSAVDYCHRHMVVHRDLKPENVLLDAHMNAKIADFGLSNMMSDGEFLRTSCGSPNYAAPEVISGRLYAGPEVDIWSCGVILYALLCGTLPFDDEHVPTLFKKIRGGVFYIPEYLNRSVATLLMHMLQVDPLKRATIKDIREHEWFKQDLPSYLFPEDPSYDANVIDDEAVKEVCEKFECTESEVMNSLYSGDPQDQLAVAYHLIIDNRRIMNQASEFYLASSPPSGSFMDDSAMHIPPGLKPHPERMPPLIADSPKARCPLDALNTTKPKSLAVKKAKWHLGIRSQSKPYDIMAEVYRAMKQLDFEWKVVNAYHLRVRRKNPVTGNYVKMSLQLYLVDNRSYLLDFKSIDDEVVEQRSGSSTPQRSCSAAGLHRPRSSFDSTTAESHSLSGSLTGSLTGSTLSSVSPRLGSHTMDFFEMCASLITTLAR
T1 sequence (O43741 whole entry): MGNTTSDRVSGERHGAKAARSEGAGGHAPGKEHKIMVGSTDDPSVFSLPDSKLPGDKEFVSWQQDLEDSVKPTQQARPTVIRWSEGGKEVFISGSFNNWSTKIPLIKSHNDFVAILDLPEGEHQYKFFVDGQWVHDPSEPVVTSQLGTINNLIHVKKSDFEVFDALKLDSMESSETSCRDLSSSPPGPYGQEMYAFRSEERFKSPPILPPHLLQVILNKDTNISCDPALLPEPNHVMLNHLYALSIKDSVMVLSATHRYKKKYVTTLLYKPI
T1 sequence (P54619 whole entry partner): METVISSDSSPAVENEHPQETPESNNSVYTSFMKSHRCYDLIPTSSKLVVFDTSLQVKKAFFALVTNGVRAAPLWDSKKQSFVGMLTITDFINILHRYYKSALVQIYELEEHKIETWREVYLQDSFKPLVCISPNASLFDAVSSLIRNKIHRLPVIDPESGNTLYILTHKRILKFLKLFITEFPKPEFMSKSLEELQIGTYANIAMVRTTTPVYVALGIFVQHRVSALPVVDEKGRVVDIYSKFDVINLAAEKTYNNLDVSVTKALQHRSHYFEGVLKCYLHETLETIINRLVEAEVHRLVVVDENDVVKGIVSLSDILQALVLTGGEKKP
Assay: Test Example 2: activation of phosphorylated human AMPK α2β2γ1 (mobility-shift kinase assay, FL-Peptide 7)
Type: biochemical
Details: for EC150: compound concentration showing 150% relative to the control (100%), human AMPK α2β2γ1 phosphorylated with CaMKK2; for Emax: maximum rate of increase in activity within the measurement range, control = 100%, read-out: Emax
Method in brief: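 His-tagged α2β2γ1 expressed in E. coli was pre-phosphorylated by GST-CaMKKβ (25 °C, 1–1.5 h), then exposed to compound for 10 min (1% DMSO). Reaction: pH 7.0 HEPES, ATP and 1.5 μM FL-Peptide 7 (final), 2 h at 25 °C. Mobility-shift conversion gave % activity increase versus compound-free control.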

Row | Compound | EC150 [nM] | Emax [%]
1 | COCCS(=N)(=O)c1ccc(-c2ccc(-c3nc4cc(O[C@@H]5CO[C@H]6[C@@H]5OC[C@H]6O)[nH]c4cc3F)cc2)cc1 (stereo partly drawn) [Compound I-2-96] | 2.9 | 631
2 | COCCOc1ccc(-c2ccc(-c3nc4cc(O[C@@H]5CO[C@H](CO)C5)[nH]c4cc3F)cc2)cc1 [Compound I-2-02] | – | 537
3 | OC[C@H]1OC[C@@H](Oc2cc3nc(-c4ccc(C5(CO)CC5)cc4)c(F)cc3[nH]2)C1(F)F [Compound I-2-90] | 1.9 | 406
4 | CP(C)(=O)c1ccc(-c2ccc(-c3nc4cc(O[C@@H]5CO[C@H]6[C@@H]5OC[C@H]6O)[nH]c4cc3F)cc2)cc1 [Compound I-2-56] | 1.6 | 618
5 | C[S+]([O-])c1ccc(-c2ccc(-c3nc4cc(O[C@@H]5CO[C@H]6[C@@H]5OC[C@H]6O)[nH]c4cc3F)cc2)cc1 (single isomer, unassigned) [Compound I-2-08] | 1.6 | 598
6 | O[C@@H]1CO[C@H]2[C@@H]1OC[C@H]2Oc1cc2nc(-c3ccc(-c4ccc(OC5COC5)cc4)cc3)c(F)cc2[nH]1 [Compound I-1-28] | 15 | 596
7 | CC(C)(O)/C=C/c1ccc(-c2nc3cc(O[C@@H]4CO[C@H]5[C@@H]4OC[C@H]5O)[nH]c3cc2F)cc1 [Compound I-2-14] | 9.9 | 507
8 | CC(=O)NC1CCN(c2ccc(-c3nc4cc(O[C@@H]5CO[C@H]6[C@@H]5OC[C@H]6O)[nH]c4cc3F)cc2)CC1 [Compound I-1-31] | 9.5 | 539
9 | CNC(=O)c1ccc(-c2ccc(-c3nc4cc(O[C@@H]5CO[C@H](CO)C5)[nH]c4cc3F)cc2)cc1 [Compound I-2-88] | 0.62 | 683
10 | CS(=O)(=O)N[C@H]1CC[C@H](c2ccc(-c3nc4cc(O[C@@H]5CO[C@H]6[C@@H]5OC[C@H]6O)[nH]c4cc3F)cc2)CC1 [Compound I-1-45] | 19 | 482
11 | COCCOCCOc1ccc(-c2ccc(-c3nc4cc(O[C@@H]5CO[C@H]6[C@@H]5OC[C@H]6O)[nH]c4cc3F)cc2)cc1 [Compound I-2-48] | 1.1 | 635
12 | CCOCCOc1ccc(-c2ccc(-c3nc4cc(O[C@@H]5CO[C@H]6[C@@H]5OC[C@H]6O)[nH]c4cc3F)cc2)cc1 [Compound I-2-61] | 5.1 | 562
13 | COC(=O)N1CC=C(c2ccc(-c3nc4cc(O[C@@H]5CO[C@H]6[C@@H]5OC[C@H]6O)[nH]c4cc3F)cc2)CC1 [Compound I-1-43] | 7 | 514
14 | CNC(=O)Nc1ccc(-c2ccc(-c3nc4cc(O[C@@H]5CO[C@H]6[C@@H]5OC[C@H]6O)[nH]c4cc3F)cc2)cc1 [Compound I-1-08] | 4.7 | 444
15 | CNC(=O)c1ccc(-c2ccc(-c3nc4cc(O[C@@H]5CO[C@H]6[C@@H]5OC[C@H]6O)[nH]c4cc3F)cc2)cc1 [Compound I-1-55] | 0.34 | 431
16 | CN(C)CCOc1ccc(-c2ccc(-c3nc4cc(O[C@@H]5CO[C@H]6[C@@H]5OC[C@H]6O)[nH]c4cc3F)cc2)cc1 [Compound I-1-68] | 2.5 | 360
17 | C[S@@](=O)(=Nc1ccc(-c2ccc(-c3nc4cc(O[C@@H]5CO[C@H]6[C@@H]5OC[C@H]6O)[nH]c4cc3F)cc2)cc1)c1ccccc1 [Compound I-1-19] | 5.8 | 477
18 | O=C(c1ccc(-c2ccc(-c3nc4cc(O[C@@H]5CO[C@H](CO)C5(F)F)[nH]c4cc3F)cc2)cc1)N1CCOCC1 [Compound I-2-97] | 4.6 | 527

Row | Compound | EC150 [nM] | Emax [%]
19 | O[C@@H]1CO[C@H]2[C@@H]1OC[C@H]2Oc1cc2nc(-c3ccc(-c4ccc(O[C@H]5CCOC5)cc4)cc3)c(F)cc2[nH]1 [Compound I-2-85] | 1.5 | 500
20 | O[C@@H]1CO[C@H]2[C@@H]1OC[C@H]2Oc1cc2nc(-c3ccc(-c4ccc(Oc5ccncc5)cc4)cc3)c(F)cc2[nH]1 [Compound I-2-45] | 5 | 613
21 | COCCCN1CCN(c2ccc(-c3nc4cc(O[C@@H]5CO[C@H]6[C@@H]5OC[C@H]6O)[nH]c4cc3F)cc2)CC1 [Compound I-2-58] | 56 | 514
22 | OCCCc1ccc(-c2ccc(-c3nc4cc(O[C@@H]5CO[C@H]6[C@@H]5OC[C@H]6O)[nH]c4cc3F)cc2)cc1 [Compound I-2-30] | 4.3 | 605
23 | O[C@@H]1CO[C@H]2[C@@H]1OC[C@H]2Oc1cc2nc(-c3ccc(-c4ccc(C5=NCCO5)cc4)cc3)c(F)cc2[nH]1 [Compound I-1-15] | 0.58 | 525
24 | O[C@@H]1CO[C@H]2[C@@H]1OC[C@H]2Oc1cc2nc(-c3ccc(-c4ccc(OCC5CCCO5)cc4)cc3)c(F)cc2[nH]1 (stereo partly drawn) [Compound I-2-33] | 20 | 362
25 | CS(C)(=O)=Nc1ccc(-c2ccc(-c3nc4cc(O[C@@H]5CO[C@H](CO)C5(F)F)[nH]c4cc3F)cc2)cc1 [Compound I-2-43] | 6.2 | 514
26 | COCCN(C(C)=O)c1ccc(-c2ccc(-c3nc4cc(O[C@@H]5CO[C@H]6[C@@H]5OC[C@H]6O)[nH]c4cc3F)cc2)cc1 [Compound I-2-37] | 4.5 | 415
27 | CN1CCC(Oc2ccc(-c3ccc(-c4nc5cc(O[C@@H]6CO[C@H]7[C@@H]6OC[C@H]7O)[nH]c5cc4F)cc3)cc2)C1 (stereo partly drawn) [Compound I-1-26] | 1.5 | 353
28 | COCCNC(=O)c1ccc(-c2ccc(-c3nc4cc(O[C@@H]5CO[C@H](CO)C5)[nH]c4cc3F)cc2)cc1 [Compound I-2-82] | 0.5 | 591
29 | CNS(=O)(=O)c1ccc(-c2ccc(-c3nc4cc(O[C@@H]5CO[C@H]6[C@@H]5OC[C@H]6O)[nH]c4cc3F)cc2)nc1 [Compound I-1-32] | 8 | 456
30 | O[C@@H]1CO[C@H]2[C@@H]1OC[C@H]2Oc1cc2nc(-c3ccc(-c4ccc(OC5CNC[C@H]5F)cc4)cc3)c(F)cc2[nH]1 (stereo partly drawn) [Compound I-2-28] | 4.4 | 398
31 | CCP(=O)(CC)c1ccc(-c2ccc(-c3nc4cc(O[C@@H]5CO[C@H](CO)C5)[nH]c4cc3F)cc2)cc1 [Compound I-2-78] | 1.5 | 573
32 | CC(=O)NC1CC=C(c2ccc(-c3nc4cc(O[C@@H]5CO[C@H](CO)C5)[nH]c4cc3F)cc2)CC1 (stereo partly drawn) [Compound I-2-92] | 0.87 | 702
33 | COC(=O)NC1CCN(c2ccc(-c3nc4cc(O[C@@H]5CO[C@H](CO)C5)[nH]c4cc3F)cc2)CC1 [Compound I-1-03] | 9.8 | 556
34 | CS(C)(=O)=Nc1ccc(-c2ccc(-c3nc4cc(O[C@H]5CO[C@H](CO)[C@@H](O)C5)[nH]c4cc3F)cc2)cc1 [Compound I-1-04] | 6.2 | 332
35 | CS(C)(=O)=Nc1ccc(-c2ccc(-c3nc4cc(O[C@H]5CCOC5)[nH]c4cc3Cl)cc2)cc1 [Compound I-1-01] | 24 | 282
